Results as given in patent US20240041890A1, “ANTI-HAIR-LOSS COMPOSITION” (WELLA GERMANY GMBH, priority 2020, published 2024).

How the values were obtained:
[1] = test system: hair follicles in human full thickness scalp skin punches; assay: Microscopic hair cycle staging and hair cycle score in ex vivo cultured scalp skin; format: cell-based; conditions: for hair cycle score ± SEM: 100 = anagen, 200 = early catagen, 300 = mid catagen, 400 = late catagen, lower number = more hairs in anagen; for % of hair follicles in anagen phase / % of hair follicles in early catagen phase: two topical treatments (day 1 and 3), evaluated after 5 days of ex vivo culture
Procedure: Human full thickness scalp skin punches (6 mm diameter) with hair from the occipital region were obtained from a donor. The dissected human punches were cultured at 37° C. with 5% CO2 in a minimal media of William's E media (Gibco, Life Technologies) supplemented with 10 ng/ml hydrocortisone (Sigma Aldrich), 10 μg/ml insulin (Sigma Aldrich) and 1% penicllin/streptomycin (Gibco) to make William's Complete Media (WCM) modified as previously described (Edelkamp et al., Molecular Dermatology 2020, Langan et al., Exp Dermatol 2015). After 24 h resting culture (day 0), two topical treatments were Performed (day 1 and 3). The medium was changed at day 3. Punches were embedded in OCT Compound (Optimal Cutting Temperature Compound) after 5 days (day 5) of ex vivo culture and cryosectioned (7 μm sections). The experimental groups for the topical treatments are outlined in Table 3.
Hair cycle staging and hair cycle score are perfomed at the end of the culture and can be determined according to several established macroscopic and microscopic paremeters (Langan et al., Exp Dermatol 2015; Oh et al., JID 2016).
Hair follicles are microscopically evaluated for the hair cycle staging using Masson-Fontana histochemistry and Ki-67/TUNEL immunostaining as previously described (Kloepper at al., Exp Dermatol 2010; Langan et al., Exp Dermatol 2015). For each experimental group, the percentage of hair follicles in each hair cycle phase was calculated and is shown below.

[2] = biological target: T1, olfactory receptor OR2AT4 (Homo sapiens, UniProt A6NND4); conditions: OR2AT4 expressed in the epithelium of human hair follicles; cited from earlier work
T1 sequence (A6NND4 1-320): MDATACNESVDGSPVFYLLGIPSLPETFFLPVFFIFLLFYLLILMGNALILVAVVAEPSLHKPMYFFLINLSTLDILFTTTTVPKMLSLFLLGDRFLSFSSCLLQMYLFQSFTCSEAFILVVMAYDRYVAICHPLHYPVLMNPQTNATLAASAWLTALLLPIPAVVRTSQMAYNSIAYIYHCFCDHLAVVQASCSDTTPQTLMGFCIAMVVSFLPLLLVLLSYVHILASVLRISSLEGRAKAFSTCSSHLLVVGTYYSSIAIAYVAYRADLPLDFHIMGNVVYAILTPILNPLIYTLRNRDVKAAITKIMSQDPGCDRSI

[3] = test system: human hair follicles; conditions: by decreasing apoptosis and increasing the production of growth factor IGF-1; cited from earlier work

CC1=CCC(CCC(C)C(C)O)C1(C)C (stereo not drawn) [#2 (Sand), 3-methyl-5-(2,2,3-trimethylcyclopent-3-en-1-yl)pentan-2-ol]
hair cycle score ± SEM [1]: 137.5 ± 12.5 arbitrary units
effect on anagen (in words) ([1]; topical application on ex vivo cultured scalp skin): prolongs anagen
% of hair follicles in anagen phase [1]: 63%
% of hair follicles in early catagen phase [1]: 38%
effect on the olfactory receptor OR2AT4 [2]: stimulatory effect
effect on hair growth ex vivo [3]: prolongs hair growth ex vivo

Nc1cc(N2CCCCC2)nc(N)[n+]1[O-] [#5 Minox), Minoxidil]
hair cycle score ± SEM [1]: 123.1 ± 12.16 arbitrary units
% of hair follicles in anagen phase [1]: 77%
% of hair follicles in early catagen phase [1]: 23%
